From US20150182492A1, “Ulcer Treatment” (United Arab Emirates University, priority 2013, published 2015)

Experiments:
[1] = test system: histamine stimulated gastric acid secretion from rat stomach; assay: Gastric acid secretion measured in vivo (histamine stimulated); parameters: species or system rat (male Wistar); settings: for Acid output, mean: histamine 2 mg/kg bolus; for Acid output compared to the histamine control (in words): treated orally, then challenged with histamine, FIGS. 1-3
Method: (§1) Male Wistar rats (weighing 200-225 g) were fasted for 24 hours in wire mesh cages to avoid coprophagy. The rats were obtained from the animal facilities of the Faculty of Medicine and Health Sciences of the United Arab Emirates (UAE) University. Materials
Groups of six rats were used for the experiment. Rats were initially anesthetized with urethane (1.5 g/kg) intraperitoneally. Following general anesthesia, a laparotomy was immediately performed followed by the insertion of a polyethylene tube at the pyloric end of the stomach. This tube was used to collect exudates from the stomach. An orogastric tube was inserted in the stomach via the esophagus. This tube was used to perfuse the stomach with saline (pH 7) at a constant rate of 7 mL/min at 37° C. Following perfusion, effluent samples were collected and titrated against 0.01 M NaOH every 15 minutes for acid secretion. After basal acid output for 1 hour, either saline, quercetin (50 mg/kg,), or diallyl sulfide (50 mg/kg), or allyl disulfide (10 mg/kg) at neutral pH was given orally and 30 minutes later, histamine (2 mg/kg) was administered as a bolus injection. Acid output was monitored continuously for 2 hours thereafter. The acid output was calculated and expressed as μmol (15 min^−1).

[2] = test system: gastric ulcer formation in rat stomachs; assay: Antiulcer activity, acidified ethanol-induced gastric ulcer; assay type: in vivo, rat (male Wistar); parameters: key to Ulcer Index, Mean: total length of hemorrhagic lesions (mm) = ulcer index; settings: for Ulcer index compared to the control (in words): acidified ethanol model, rats; for Ulcer Index, Mean: 30 min before acidified ethanol, control 95.00
Method: as §1
Rats were divided into groups of six to seven animals for each experiment. Each group received either neutral pH physiologic saline (1 mL) or water extract of either quercetin, diallyl sulfide or allyl disulfide (1 mg/kg, 10 mg/kg, 50 mg/kg or 100 mg/kg; six rats for each dose) by gastric gavage. Two additional comparison groups received either the proton pump inhibitor Lansoprazole (10 mg/kg) or the H2-receptor antagonist Ranitidine (20 mg/kg). After 30 minutes of the treatment, 1 mL of acidified ethanol (60% ethanol with 150 mM HCl), an ulcerogenic agent, was administered orally to the animals. The animals were sacrificed 1 hour later by increasing the dose of the anaesthesia. The abdomen was incised, and the stomachs removed, cut open along the greater curvature, and rinsed with saline to remove any adherent particles and mucus. The open stomach was spread on a sheet of cork so as to have a clear view of gastric lesions in the gastric mucosa. The total lengths of hemorrhagic lesions, which were approximately 1 mm in length and formed in the glandular portion of the gastric mucosa, were taken as ulcer index. An observer who was unaware of the drug treatments confirmed the ulcer index. The percentage reduction of the ulcer index in the drug-treated groups was calculated from the saline treated groups. The use of 60% ethanol in 150 mM HCl to produce an ulcerogenic effect was based on earlier observation that ethanol 50% and over provided a reproducible model of gastric damage.

[3] = dose 10 mg/kg by gastric gavage
[4] = dose 50 mg/kg by gastric gavage
[5] = dose 100 mg/kg by gastric gavage

| SMILES | Acid output, mean ([1]; time 0 min, 50 mg/kg oral) | Acid output, mean ([1]; time 30 min, 50 mg/kg oral) | Acid output, mean ([1]; time 45 min, 50 mg/kg oral) | Acid output, mean ([1]; time 60 min, 50 mg/kg oral) | Acid output, mean ([1]; time 75 min, 50 mg/kg oral) | Acid output, mean ([1]; time 90 min, 50 mg/kg oral) | Acid output, mean ([1]; time 105 min, 50 mg/kg oral) | Acid output, mean ([1]; time 120 min, 50 mg/kg oral) | Acid output, mean ([1]; time 135 min, 50 mg/kg oral) | Acid output, mean ([1]; time 150 min, 50 mg/kg oral) | Acid output compared to the histamine control (in words) [1] | Ulcer index compared to the control (in words) [2] | Ulcer Index, Mean ([2]; dose 1 mg/kg by gastric gavage) | Ulcer Index, Mean [2, 3] | Ulcer Index, Mean [2, 4] | Ulcer Index, Mean [2, 5] | also measured |
| --- | --- | --- | --- | --- | --- | --- | --- | --- | --- | --- | --- | --- | --- | --- | --- | --- | --- |
| O=c1c(O)c(-c2ccc(O)c(O)c2)oc2cc(O)cc(O)c12 [Quercetin] | 1.633 μmol (15 min^−1) | 3.323 μmol (15 min^−1) | 1.299 μmol (15 min^−1) | 5.507 μmol (15 min^−1) | 2.579 μmol (15 min^−1) | 1.84 μmol (15 min^−1) | 1.868 μmol (15 min^−1) | 2.213 μmol (15 min^−1) | 1.927 μmol (15 min^−1) | 1.497 μmol (15 min^−1) | reduced acid output compared to the histamine control | significantly reduced ulcer index compared to the control | 34.00 | 34.00 | 21.83 | 31.17 |  |
| CNC(=C[N+](=O)[O-])NCCSCc1ccc(CN(C)C)o1 [Ranitidine, reference compound] |  |  |  |  |  |  |  |  |  |  |  |  |  |  |  |  | Ulcer Index, Mean ([2]; dose 20 mg/kg): 28.50 |
| C=CCSCC=C [Allyl sulfide, Diallyl sulfide] | 1.926 μmol (15 min^−1) | 3.328 μmol (15 min^−1) | 2.023 μmol (15 min^−1) | 1.742 μmol (15 min^−1) | 1.901 μmol (15 min^−1) | 1.627 μmol (15 min^−1) | 1.761 μmol (15 min^−1) | 1.883 μmol (15 min^−1) | 2.301 μmol (15 min^−1) | 1.525 μmol (15 min^−1) | reduced acid output compared to the histamine control | significantly reduced ulcer index compared to the control | 114.83 | 72.33 | 5.50 | 13.00 |  |
| C=CCSSCC=C [Allyl disulfide] |  |  |  |  |  |  |  |  |  |  | reduced acid output compared to the histamine control | significantly reduced ulcer index compared to the control | 11.67 | 0.00 | 8.33 | 11.00 | Acid output, mean ([1]; time 0 min, 10 mg/kg oral): 2.154 μmol (15 min^−1); Acid output, mean ([1]; time 30 min, 10 mg/kg oral): 3.514 μmol (15 min^−1); Acid output, mean ([1]; time 45 min, 10 mg/kg oral): 2.458 μmol (15 min^−1); Acid output, mean ([1]; time 60 min, 10 mg/kg oral): 2.085 μmol (15 min^−1); Acid output, mean ([1]; time 75 min, 10 mg/kg oral): 2.701 μmol (15 min^−1); Acid output, mean ([1]; time 90 min, 10 mg/kg oral): 2.77 μmol (15 min^−1); Acid output, mean ([1]; time 105 min, 10 mg/kg oral): 2.648 μmol (15 min^−1); Acid output, mean ([1]; time 120 min, 10 mg/kg oral): 1.431 μmol (15 min^−1); Acid output, mean ([1]; time 135 min, 10 mg/kg oral): 1.286 μmol (15 min^−1); Acid output, mean ([1]; time 150 min, 10 mg/kg oral): 1.34 μmol (15 min^−1) |
| Cc1c(OCC(F)(F)F)ccnc1C[S+]([O-])c1nc2ccccc2[nH]1 (centres unmarked) [Lansoprazole, reference compound] |  |  |  |  |  |  |  |  |  |  |  |  |  | 13.00 |  |  |  |
